Results as given in ChEMBL document CHEMBL1938325, “Synthesis of new 5,6-dihydrobenzo[h]quinazoline 2,4-diamino substituted and antiplatelet/antiphlogistic activities evaluation” (Bioorg Med Chem Lett, 2012).
The source made the active and inactive calls. The calls are words filed in the database; no cut-off is given here.

How the values were obtained:
[1] = Antiplatelet activity against guinea pig platelet-rich plasma assessed as inhibition of arachidonic acid-induced platelet aggregation measured within 3 hrs by turbidimetric method; type: functional; conditions: Cavia porcellus
[2] = system: Platelet; test: Antiplatelet activity against guinea pig platelet-rich plasma assessed as inhibition of ADP-induced platelet aggregation up to 500 uM measured within 3 hrs by turbidimetric method; type: functional; conditions: Cavia porcellus
[3] = system: Platelet; test: Antiplatelet activity against guinea pig platelet-rich plasma assessed as inhibition of U46619-induced platelet aggregation up to 500 uM measured within 3 hrs by turbidimetric method; type: functional; conditions: Cavia porcellus
[4] = system: Mus musculus; test: Antinociceptive activity in Swiss mouse assessed as inhibition of acetic acid induced writhing at 100 mg/kg, po measured every 5 mins for 45 mins; type: functional
[5] = system: Mus musculus; test: Antinociceptive activity in Swiss mouse assessed as inhibition of acetic acid induced writhing at 50 mg/kg, po measured every 5 mins for 45 mins; type: functional
[6] = system: Rattus norvegicus; test: Antiphlogistic activity in Wistar rat assessed as inhibition of carrageenan-induced paw oedema at 100 mg/kg, po; type: functional
[7] = Antiplatelet activity against guinea pig platelet-rich plasma assessed as inhibition of ADP-induced platelet aggregation measured within 3 hrs by turbidimetric method; type: functional; conditions: Cavia porcellus
[8] = Antiplatelet activity against guinea pig platelet-rich plasma assessed as inhibition of U46619-induced platelet aggregation measured within 3 hrs by turbidimetric method; type: functional; conditions: Cavia porcellus
[9] = system: Rattus norvegicus; test: Antiphlogistic activity in Wistar rat assessed as inhibition of carrageenan-induced paw oedema at 50 mg/kg, po; type: functional
[10] = system: Rattus norvegicus; test: Antiphlogistic activity in Wistar rat assessed as inhibition of carrageenan-induced paw oedema at 25 mg/kg, po; type: functional
[11] = target: T1, Prostaglandin G/H synthase 2 (Homo sapiens) (UniProt P35354); test: Inhibition of COX-2 at 1 mM
T1 sequence (whole entry): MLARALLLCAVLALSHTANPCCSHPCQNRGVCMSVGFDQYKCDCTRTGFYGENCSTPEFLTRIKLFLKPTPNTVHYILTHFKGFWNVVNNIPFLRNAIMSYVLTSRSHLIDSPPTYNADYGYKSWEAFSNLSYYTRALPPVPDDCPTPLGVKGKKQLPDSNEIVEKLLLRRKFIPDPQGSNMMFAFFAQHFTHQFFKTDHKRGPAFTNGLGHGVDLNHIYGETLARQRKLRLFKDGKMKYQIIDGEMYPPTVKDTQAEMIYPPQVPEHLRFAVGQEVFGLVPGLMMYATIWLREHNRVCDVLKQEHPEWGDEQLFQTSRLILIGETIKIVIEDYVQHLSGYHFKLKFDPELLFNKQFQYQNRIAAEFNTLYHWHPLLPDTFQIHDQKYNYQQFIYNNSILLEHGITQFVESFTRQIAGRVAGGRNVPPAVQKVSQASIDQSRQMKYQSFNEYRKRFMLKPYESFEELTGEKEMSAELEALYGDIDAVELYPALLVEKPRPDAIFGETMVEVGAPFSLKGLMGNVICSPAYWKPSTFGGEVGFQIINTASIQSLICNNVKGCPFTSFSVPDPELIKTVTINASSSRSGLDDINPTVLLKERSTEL

[12] = target: Prostaglandin G/H synthase 1 (Homo sapiens) (UniProt P23219); test: Inhibition of COX-1 at 1 mM
Prostaglandin G/H synthase 1 (Homo sapiens), sequence (P23219 whole entry): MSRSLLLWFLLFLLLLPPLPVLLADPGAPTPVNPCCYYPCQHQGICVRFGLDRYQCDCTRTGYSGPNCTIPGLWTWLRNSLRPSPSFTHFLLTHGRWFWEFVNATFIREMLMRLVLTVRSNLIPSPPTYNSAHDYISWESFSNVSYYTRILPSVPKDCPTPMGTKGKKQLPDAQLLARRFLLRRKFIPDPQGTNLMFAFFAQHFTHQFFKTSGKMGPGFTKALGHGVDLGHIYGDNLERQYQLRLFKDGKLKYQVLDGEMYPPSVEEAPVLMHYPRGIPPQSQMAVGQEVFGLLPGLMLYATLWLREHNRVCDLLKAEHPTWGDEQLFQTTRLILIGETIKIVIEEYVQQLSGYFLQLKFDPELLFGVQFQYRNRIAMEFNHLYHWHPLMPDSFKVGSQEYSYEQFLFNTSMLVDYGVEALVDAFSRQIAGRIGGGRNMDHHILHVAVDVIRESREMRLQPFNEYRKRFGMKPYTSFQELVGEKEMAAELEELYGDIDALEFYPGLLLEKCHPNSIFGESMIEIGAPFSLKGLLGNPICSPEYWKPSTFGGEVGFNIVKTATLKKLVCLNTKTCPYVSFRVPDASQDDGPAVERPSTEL

[13] = system: Mus musculus; test: Toxicity in Swiss mouse assessed as effect on spontaneous locomotion activity at 25 to 100 mg/kg, po by classic open filed test; type: organism-based; set-up: dose 25-100 mg/kg, route oral; conditions: in vivo
[14] = system: Mus musculus; test: Antinociceptive activity in Swiss mouse assessed as inhibition of acetic acid induced writhing at 25 mg/kg, po measured every 5 mins for 45 mins; type: functional
[15] = system: Mus musculus; test: Toxicity in Swiss mouse assessed as sedation at 25 to 100 mg/kg, po; type: organism-based; set-up: dose 25-100 mg/kg, route oral; conditions: in vivo
[16] = system: Rattus norvegicus; test: Antiphlogistic activity in Wistar rat assessed as inhibition of carrageenan-induced paw oedema at 10 mg/kg, po; type: functional

Compound	IC50 [1]	IC50 [7]	IC50 [8]	Imax [11]	Imax [12]	inhibition [2]	inhibition [3]	inhibition in vivo at 100 mg/kg [4]	inhibition in vivo at 50 mg/kg [5]	inhibition in vivo at 100 mg/kg [6]	inhibition in vivo at 50 mg/kg [9]	inhibition in vivo at 25 mg/kg [10]	Activity [13]	inhibition in vivo at 25 mg/kg [14]	Activity [15]	inhibition in vivo at 10 mg/kg [16]
CNc1nc(Nc2ccccc2)c2c(n1)-c1ccccc1CC2	105 µM					inactive	inactive	54%	0%	5%						
CC(=O)Oc1ccccc1C(=O)O [ASPIRIN]	45 µM	> 500 µM					inactive									
CN(C)c1nc(Nc2ccccc2)c2c(n1)-c1ccccc1CC2	46 µM	> 500 µM		50.7%	28.7%		inactive	64%	51%	0%			Non-toxic	0%	Non-toxic	
COc1ccc2c(c1)c(CC(=O)O)c(C)n2C(=O)c1ccc(Cl)cc1 [INDOMETHACIN]																45%
Nc1nc(NCCc2ccccc2)c2c(n1)-c1ccccc1CC2	89 µM					inactive	inactive	54%	32%	19%	20%					

The next lines start with results.

IC50 [1]	IC50 [7]	IC50 [8]	Imax [11]	Imax [12]	Compound	inhibition [2]	inhibition [3]	inhibition in vivo at 100 mg/kg [4]	inhibition in vivo at 50 mg/kg [5]	inhibition in vivo at 100 mg/kg [6]	inhibition in vivo at 50 mg/kg [9]	inhibition in vivo at 25 mg/kg [10]	Activity [13]	inhibition in vivo at 25 mg/kg [14]	Activity [15]	inhibition in vivo at 10 mg/kg [16]
89 µM	311 µM	205 µM	38.6%	50.5%	Nc1nc(Nc2ccccc2)c2c(n1)-c1ccccc1CC2			15%		54%	53%	0%				
166 µM	307 µM				Nc1nc2c(c(N3CCCC3)n1)CCc1ccccc1-2		inactive	30%		42%	42%	0%				
68 µM	336 µM	385 µM			Nc1nc2c(c(N3CCCCC3)n1)CCc1ccccc1-2			0%		31%	41%	0%				
200 µM					Nc1nc(NCc2ccccc2)c2c(n1)-c1ccccc1CC2	inactive	inactive	62%	8%	23%						
224 µM	341 µM				Nc1nc2c(c(N3CCOCC3)n1)CCc1ccccc1-2		inactive	19%		40%	0%					
